# Several values for one entry are separate records, joined by “and”; a condition that tells them apart may be missing. Identical values can stand only once.
# System: VA-ES-BJ tumor spheroid viability
# Experiment: Anticancer human tumor VA-ES-BJ cell line growth inhibition;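 further: spheroids exposed to compounds for seven days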;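 on viability, T/C: percent of DMSO vehicle control viability so 100% = untreated growth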
# Details: spheroids with HUVEC and MSC; for viability, T/C: stronger effect = lower value
# Outline: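 Single agents and combinations were tested on spheroids built from tumor cells plus HUVEC and hMSC, at half-log dilutions starting at or near clinical Cmax, else 10 microM; final DMSO 0.25% (v/v).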
# [1] = curve of first compound, second compound 0.003 µM
# [2] = second compound 0.003 µM, first compound 0.00949 µM
# [3] = second compound 0.003 µM, first compound 0.03 µM
# [4] = second compound 0.003 µM, first compound 0.0949 µM
# [5] = second compound 0.003 µM, first compound 0.3 µM
# [6] = second compound 0.003 µM, first compound 0.949 µM
# [7] = second compound 0.003 µM, first compound 3 µM
compound,measurement,setting,value
Cn1ncnc1[C@H]1c2n[nH]c(=O)c3cc(F)cc(c23)N[C@@H]1c1ccc(F)cc1 + COc1cc2c(cc1O)CCNC21CSC2c3c(OC(C)=O)c(C)c4c(c3C(COC1=O)N1C(O)C3Cc5cc(C)c(OC)c(O)c5C(C21)N3C)OCO4,IC50,"curve of first compound, second compound 30 pM",0.329 µM
same,IC50,"curve of first compound, second compound 94.9 pM",0.155 µM
same,IC50,"curve of first compound, second compound 0.0003 µM",< 0.00949 µM
same,IC50,"curve of first compound, second compound 0.000949 µM",< 0.00949 µM
same,IC50,[1],< 0.00949 µM
same,"viability, T/C","second compound 30 pM, first compound 0.00949 µM",92.8%
same,"viability, T/C","second compound 30 pM, first compound 0.03 µM",79.3%
same,"viability, T/C","second compound 30 pM, first compound 0.0949 µM",67.9%
same,"viability, T/C","second compound 30 pM, first compound 0.3 µM",54.9%
same,"viability, T/C","second compound 30 pM, first compound 0.949 µM",29.8%
same,"viability, T/C","second compound 30 pM, first compound 3 µM",6.51%
same,"viability, T/C","second compound 94.9 pM, first compound 0.00949 µM",67.8%
same,"viability, T/C","second compound 94.9 pM, first compound 0.03 µM",70.4%
same,"viability, T/C","second compound 94.9 pM, first compound 0.0949 µM",52.8%
same,"viability, T/C","second compound 94.9 pM, first compound 0.3 µM",42.1%
same,"viability, T/C","second compound 94.9 pM, first compound 0.949 µM",24%
same,"viability, T/C","second compound 94.9 pM, first compound 3 µM",6.18%
same,"viability, T/C","second compound 0.0003 µM, first compound 0.00949 µM",33.9%
same,"viability, T/C","second compound 0.0003 µM, first compound 0.03 µM",29.3%
same,"viability, T/C","second compound 0.0003 µM, first compound 0.0949 µM",23.9%
same,"viability, T/C","second compound 0.0003 µM, first compound 0.3 µM",19.7%
same,"viability, T/C","second compound 0.0003 µM, first compound 0.949 µM",8.26%
same,"viability, T/C","second compound 0.0003 µM, first compound 3 µM",4.82%
same,"viability, T/C","second compound 0.000949 µM, first compound 0.00949 µM",3.64%
same,"viability, T/C","second compound 0.000949 µM, first compound 0.03 µM",3.04%
same,"viability, T/C","second compound 0.000949 µM, first compound 0.0949 µM",2.49%
same,"viability, T/C","second compound 0.000949 µM, first compound 0.3 µM",3.23%
same,"viability, T/C","second compound 0.000949 µM, first compound 0.949 µM",1.4%
same,"viability, T/C","second compound 0.000949 µM, first compound 3 µM",0.45%
same,"viability, T/C",[2],1.48%
same,"viability, T/C",[3],1.15%
same,"viability, T/C",[4],1.53%
same,"viability, T/C",[5],2.52%
same,"viability, T/C",[6],1.19%
same,"viability, T/C",[7],2.91%
Cc1sc2c(c1C)C(c1ccc(Cl)cc1)=NC(CC(=O)Nc1ccc(O)cc1)c1nnc(C)n1-2 (configuration not stated) + CC[C@@]1(O)C(=O)OCc2c1cc1n(c2=O)Cc2cc3c(CN(C)C)c(O)ccc3nc2-1,IC50,[1],0.101 µM
same,IC50,"curve of first compound, second compound 0.00949 µM",0.0454 µM
same,IC50,"curve of first compound, second compound 0.03 µM",< 0.00949 µM
same,IC50,"curve of first compound, second compound 0.0949 µM",< 0.00949 µM
same,IC50,"curve of first compound, second compound 0.3 µM",< 0.00949 µM
same,"viability, T/C",[2],78.5%
same,"viability, T/C",[3],75.2%
same,"viability, T/C",[4],47%
same,"viability, T/C",[5],34.7%
same,"viability, T/C",[6],23.3%
same,"viability, T/C",[7],19%
same,"viability, T/C","second compound 0.00949 µM, first compound 0.00949 µM",66.1%
same,"viability, T/C","second compound 0.00949 µM, first compound 0.03 µM",55.6%
same,"viability, T/C","second compound 0.00949 µM, first compound 0.0949 µM",40.1%
same,"viability, T/C","second compound 0.00949 µM, first compound 0.3 µM",28.6%
same,"viability, T/C","second compound 0.00949 µM, first compound 0.949 µM",18.4%
same,"viability, T/C","second compound 0.00949 µM, first compound 3 µM",13.5%
same,"viability, T/C","second compound 0.03 µM, first compound 0.00949 µM",30.7%
same,"viability, T/C","second compound 0.03 µM, first compound 0.03 µM",33.7%
same,"viability, T/C","second compound 0.03 µM, first compound 0.0949 µM",23.1%
same,"viability, T/C","second compound 0.03 µM, first compound 0.3 µM",13.3%
same,"viability, T/C","second compound 0.03 µM, first compound 0.949 µM",5.6%
same,"viability, T/C","second compound 0.03 µM, first compound 3 µM",5.34%
same,"viability, T/C","second compound 0.0949 µM, first compound 0.00949 µM",5.99%
same,"viability, T/C","second compound 0.0949 µM, first compound 0.03 µM",5.36%
same,"viability, T/C","second compound 0.0949 µM, first compound 0.0949 µM",5.41%
same,"viability, T/C","second compound 0.0949 µM, first compound 0.3 µM",4.64%
same,"viability, T/C","second compound 0.0949 µM, first compound 0.949 µM",4.96%
same,"viability, T/C","second compound 0.0949 µM, first compound 3 µM",3.57%
same,"viability, T/C","second compound 0.3 µM, first compound 0.00949 µM",5.26%
same,"viability, T/C","second compound 0.3 µM, first compound 0.03 µM",5.21%
same,"viability, T/C","second compound 0.3 µM, first compound 0.0949 µM",4.85%
same,"viability, T/C","second compound 0.3 µM, first compound 0.3 µM",4.65%
same,"viability, T/C","second compound 0.3 µM, first compound 0.949 µM",4.55%
same,"viability, T/C","second compound 0.3 µM, first compound 3 µM",3.36%
[2H]c1nc(C)nc([2H])c1-c1cc(NC[C@@H](C)c2cccc3c(C(=O)NC)ccnc23)ncn1,"viability, T/C",compound 0.0316 µM,70.8% and 104% and 89.9%
same,"viability, T/C",compound 0.1 µM,77.2% and 94.7% and 88.6%
same,"viability, T/C",compound 0.316 µM,80% and 92.6% and 90.8%
same,"viability, T/C",compound 1 µM,79.4% and 104% and 99.8%
same,"viability, T/C",compound 3.16 µM,86.9% and 95.6% and 103%
same,"viability, T/C",compound 10 µM,83.2% and 99.6% and 104%
same,IC50,curve of compound,> 10 µM
